Source: ChEMBL document CHEMBL5143546, “Synthesis and biological evaluation of quinolone derivatives as transthyretin amyloidogenesis inhibitors and fluorescence sensors” (Bioorg Med Chem, 2022)

What was measured:
[1] = Metabolic stability in rat liver microsome assessed as percentage of compound remaining at 1 uM measured after 30 min by LC-MS/MS analysis; assay type: ADME; conditions: liver microsomes, read-out: Stability
Transthyretin [2] = target: T1, Transthyretin (Homo sapiens, UniProt P02766); assay: Inhibition of wild-type Transthyretin (unknown origin) expressed in Escherichia coli expression system assessed as acid mediated fibril formation at 7.2 uM measured after 72 hrs by UV-vis spectrophotometry; set-up: scale not given: the % may be the effect or the level left
Transthyretin [3] = target: T1, Transthyretin; assay: Inhibition of wild-type Transthyretin (unknown origin) expressed in Escherichia coli expression system assessed as acid mediated fibril formation at 3.6 uM measured after 72 hrs by UV-vis spectrophotometry; set-up: scale not given: the % may be the effect or the level left
[4] = test system: Transthyretin (Homo sapiens), P02766 [V50M]; assay: Inhibition of Transthyretin V30M mutant (unknown origin) assessed as acid mediated fibril formation at 3.6 uM measured after 72 hrs by UV-vis spectrophotometry; set-up: scale not given: the % may be the effect or the level left
[5] = test system: Transthyretin (Homo sapiens), P02766 [V50M]; assay: Inhibition of Transthyretin V30M mutant (unknown origin) assessed as acid mediated fibril formation at 1.8 uM measured after 72 hrs by UV-vis spectrophotometry; set-up: scale not given: the % may be the effect or the level left
[6] = Metabolic stability in rat plasma assessed as percentage of compound remaining at 1 uM measured after 1 hr by LC-MS/MS analysis; assay type: ADME, cell-free; conditions: read-out: Stability
Transthyretin [7] = target: T1, Transthyretin; assay: Inhibition of urea-induced Transthyretin denaturation in human plasma preincubated for 1 hr followed by urea addition by Western blot analysis; assay type: cell-free
[8] = Metabolic stability in human liver microsome assessed as percentage of compound remaining at 1 uM measured after 30 min by LC-MS/MS analysis; assay type: ADME; conditions: liver microsomes, read-out: Stability
[9] = Metabolic stability in rat plasma assessed as half life at 1 uM by LC-MS/MS analysis; assay type: ADME, cell-free
[10] = Metabolic stability in rat liver microsome assessed as half life at 1 uM by LC-MS/MS analysis; assay type: ADME; conditions: liver microsomes
[11] = Metabolic stability in human liver microsome assessed as half life at 1 uM by LC-MS/MS analysis; assay type: ADME; conditions: liver microsomes

remaining at 0.5 h, 1 µM [1] [%]	Activity (Transthyretin [2]) [%]	Activity (Transthyretin [3]) [%]	Activity [4] [%]	Activity [5] [%]	remaining at 1 h, 1 µM [6] [%]	IC50 (Transthyretin [7]) [µM]	remaining at 0.5 h, 1 µM [8] [%]	half-life at 1 µM [9] [min]	half-life at 1 µM [10] [min]	half-life at 1 µM [11] [min]	Compound
	2.5	31.8									COc1cc2c(C)c(CCc3cc(C)c(O)c(C)c3)c(=O)n(C)c2cc1N
	3.1	20.8	26.5	56.6		13.7					Cc1cc(CCc2c(C)c3ccc(O)cc3n(C)c2=O)cc(C)c1O
	2.3	16.4	22.1	54.8		14.4					Cc1cc(CCc2c(C)c3ccc(N)cc3n(C)c2=O)cc(C)c1O

More lines, now with the values behind:

Compound	remaining at 0.5 h, 1 µM [1] [%]	Activity (Transthyretin [2]) [%]	Activity (Transthyretin [3]) [%]	Activity [4] [%]	Activity [5] [%]	remaining at 1 h, 1 µM [6] [%]	IC50 (Transthyretin [7]) [µM]	remaining at 0.5 h, 1 µM [8] [%]	half-life at 1 µM [9] [min]	half-life at 1 µM [10] [min]	half-life at 1 µM [11] [min]
Cc1cc(/C=C/c2c(C)c3ccc(N)cc3n(C)c2=O)cc(C)c1O	57.2	3.4	12.8	16.7	49.6	≥ 100	3.1	76.9	≥ 600	36.2	95.2
COc1cc2c(C)c(/C=C/c3c(C)n[nH]c3C)c(=O)n(C)c2cc1N		14.3									
COc1cc2c(C)c(/C=C/c3cc(C)c(O)c(C)c3)c(=O)n(C)c2cc1N	59.9	6	15.7	22.9	55.3	86.8	11.4	71.5	140	45.5	60.4
Cc1n[nH]c(C)c1/C=C/c1c(C)c2ccc(N)cc2n(C)c1=O		1.8	28.1								
Cc1n[nH]c(C)c1CCc1c(C)c2ccc(N)cc2n(C)c1=O		11.6	34.8								
Cc1cc(/C=C/c2c(C)c3ccc(O)cc3n(C)c2=O)cc(C)c1O		5.9	24.5								
O=C(O)c1ccc2nc(-c3cc(Cl)cc(Cl)c3)oc2c1		3.6		15.9							
